Measured values taken from PubChem BioAssay (NCI).
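Following 48 hours of exposure in 96-well plates, responses at five concentrations were used to interpolate endpoints linearly. The concentration for 50% growth inhibition is given as GI50. TGI: concentration producing complete growth inhibition.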

Experiments:
Test in all cases: DTP human tumour cell line panel, 48 h
[1] = system: OVCAR-8 ovarian
[2] = system: NCI-H226 lung
[3] = system: SK-MEL-2 melanoma
[4] = system: MOLT-4 leukemia
[5] = system: NCI-H23 lung
[6] = system: NCI-H460 lung
[7] = system: SK-OV-3 ovarian
[8] = system: A549 NSCLC
[9] = system: OVCAR-3 ovarian
[10] = system: HCT-116 colon
[11] = system: K-562 leukemia

Row | SMILES | TGI [1] | TGI [2] | TGI [3] | TGI [4] | TGI [5] | TGI [6] | TGI [7] | TGI [8] | TGI [9] | TGI [10] | TGI [11] | GI50 [1] | GI50 [2] | GI50 [3] | GI50 [4] | GI50 [5] | GI50 [6] | GI50 [7] | GI50 [8] | GI50 [11]
1 | Nc1ccc2[nH]c3c(-c4ccccc4)nccc3c2c1 | > 100 µM | > 86.1 µM | > 100 µM | 22.8 µM | > 100 µM | > 100 µM | > 100 µM | > 100 µM | > 100 µM | > 100 µM | > 100 µM |  |  |  |  |  |  |  |  | 
2 | C[C@]12CCc3nc(Nc4ccccc4)sc3C1=CC[C@@H]1[C@@H]2CC[C@]2(C)/C(=N/NC(N)=S)CC[C@@H]12 | > 100 µM | 5.71 µM | > 100 µM | > 100 µM | > 100 µM | > 100 µM | > 100 µM | > 100 µM |  |  | > 100 µM | 3.32 µM | 2.07 µM | 5.89 µM | 1.88 µM | 6.15 µM | 6.14 µM | 82.7 µM | 8.5 µM | 1.97 µM
3 | COc1ccc(/C(Cl)=C(\C=O)c2ccc(F)cc2)cc1OC | > 100 µM | 47.2 µM | 39.4 µM | 71.7 µM | 66.6 µM | 43 µM | 77.2 µM |  | 64.6 µM | 31 µM | 73.5 µM |  |  |  |  |  |  |  |  | 
4 | Cc1[nH]c(=O)[nH]c(=O)c1/C=C/C(=O)O | > 1000 µM | > 1000 µM | > 1000 µM | > 1000 µM | > 1000 µM | > 1000 µM | > 1000 µM | > 1000 µM | > 1000 µM | > 1000 µM | > 1000 µM |  |  |  |  |  |  |  |  | 
5 | N=C(N)c1ccc(N=Nc2c(O)ccc3c2[nH]c2ccccc23)cc1 |  | > 90.6 µM | > 100 µM | 5.27 µM | > 100 µM |  | 79.9 µM |  | 5.67 µM | 37.5 µM | 4.02 µM |  |  |  |  |  |  |  |  | 
6 | O=C(NC(Cc1ccc(I)cc1)C(=O)O)c1ccc(Br)cc1 (configuration not stated) | > 100 µM | > 100 µM | > 100 µM | > 100 µM | > 100 µM | > 100 µM | > 100 µM | > 100 µM | > 100 µM | > 100 µM | > 100 µM |  |  |  |  |  |  |  |  | 
7 | COc1cc(Nc2c3ccccc3nc3ccccc23)ccc1NS(C)(=O)=O | 17.2 µM | 23.5 µM | 23.6 µM | > 100 µM |  | 12 µM | 30.8 µM | 12.3 µM |  | > 100 µM | > 100 µM |  |  |  |  |  |  |  |  | 
8 | Cc1ccc(S(=O)(=O)OCC(=O)O)cc1 | > 100 µM |  | > 100 µM | > 100 µM | > 100 µM | > 100 µM |  | > 100 µM | > 100 µM | > 100 µM | > 100 µM |  |  |  |  |  |  |  |  | 
